Assay results taken from patent US5620958A, “Bradykinin antagonists” (Coretech, Inc., priority 1994, dated 1997).
Read-outs that look alike come from different tables or passages of the source. Peptide text beside a SMILES is read from it.

Experiments:
BK2 receptor [1] = biological target: T1, BK2 receptor (Rattus norvegicus, UniProt P25023); assay: cell-based
T1 sequence (P25023 1-396): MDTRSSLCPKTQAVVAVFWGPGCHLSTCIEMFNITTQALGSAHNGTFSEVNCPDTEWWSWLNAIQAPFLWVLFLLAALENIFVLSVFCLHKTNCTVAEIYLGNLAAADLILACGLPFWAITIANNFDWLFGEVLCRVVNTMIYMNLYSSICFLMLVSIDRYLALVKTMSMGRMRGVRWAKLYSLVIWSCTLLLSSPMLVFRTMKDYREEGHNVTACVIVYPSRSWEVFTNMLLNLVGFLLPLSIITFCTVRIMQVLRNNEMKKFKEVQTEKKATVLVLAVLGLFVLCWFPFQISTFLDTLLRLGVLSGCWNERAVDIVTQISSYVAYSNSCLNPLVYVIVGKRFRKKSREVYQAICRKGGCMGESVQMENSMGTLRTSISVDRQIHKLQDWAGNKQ

BK2 receptor [2] = biological target: T2, BK2 receptor (Cavia porcellus, UniProt O70526); assay: guinea-pig ileum (GPI) in vitro, antagonism of BK; format: cell-based
T2 construct: tested for activity on guinea pig ileum in vitro on the standard tissue bath/strain gauge system; from tissue; host or cells: guinea pig ileum
T2 sequence (O70526 1-372): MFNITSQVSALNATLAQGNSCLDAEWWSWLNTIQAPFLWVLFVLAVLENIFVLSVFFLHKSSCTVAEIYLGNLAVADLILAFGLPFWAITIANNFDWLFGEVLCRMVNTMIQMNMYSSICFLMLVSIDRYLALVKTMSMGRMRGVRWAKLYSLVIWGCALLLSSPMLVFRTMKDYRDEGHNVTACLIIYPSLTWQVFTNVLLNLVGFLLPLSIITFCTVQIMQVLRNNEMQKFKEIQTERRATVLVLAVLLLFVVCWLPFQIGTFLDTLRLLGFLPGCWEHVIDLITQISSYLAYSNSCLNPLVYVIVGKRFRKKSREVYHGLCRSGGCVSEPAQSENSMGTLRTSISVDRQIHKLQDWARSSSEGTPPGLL
Experimental: Thus, in vitro studies were performed on standard assay systems, namely, guinea-pig ileum (GPI), rat uterus (RU) and rabbit jugular vein (RJV). […] The potency of each compound was assessed as a pA2 value according to the method of Arunlakshana & Schild, Br. J. Pharmacol. Chemother., 1.4:48-58 (1959). The pA2 can be defined as the negative logarithm of the molar concentration of the antagonist in the presence of which the potency of the agonist is reduced two-fold, i.e., twice the amount of agonist is required to produce a given response in the presence of, than in the absence of, the antagonist. A high potency of antagonism is indicated by a high pA2 value, i.e., a low concentration of antagonist is effective.
The percentage recovery (% Rec) was also determined for compounds with respect to each assay.
The various compounds identified in Table B below were prepared following the procedure of Example 1 with the Cys moiety introduced into the parent CP-0088 at the position indicated followed by reaction between the sulfhydryl group of the Cys residue and BMH to provide dimers as indicated. The Cys-modified monomers and the resultant dimers were tested for activity on guinea pig ileum in vitro on the standard tissue bath/strain gauge system as before.

NK1 receptor = biological target: T3, NK1 receptor (Cavia porcellus, UniProt P30547); assay: guinea pig ileum assay of NK1 receptor activity against substance P; format: cell-based; conditions: Table O
T3 construct: a standard guinea pig ileum assay of NK1 receptor activity; from tissue; host or cells: guinea pig ileum
T3 sequence (P30547 whole entry): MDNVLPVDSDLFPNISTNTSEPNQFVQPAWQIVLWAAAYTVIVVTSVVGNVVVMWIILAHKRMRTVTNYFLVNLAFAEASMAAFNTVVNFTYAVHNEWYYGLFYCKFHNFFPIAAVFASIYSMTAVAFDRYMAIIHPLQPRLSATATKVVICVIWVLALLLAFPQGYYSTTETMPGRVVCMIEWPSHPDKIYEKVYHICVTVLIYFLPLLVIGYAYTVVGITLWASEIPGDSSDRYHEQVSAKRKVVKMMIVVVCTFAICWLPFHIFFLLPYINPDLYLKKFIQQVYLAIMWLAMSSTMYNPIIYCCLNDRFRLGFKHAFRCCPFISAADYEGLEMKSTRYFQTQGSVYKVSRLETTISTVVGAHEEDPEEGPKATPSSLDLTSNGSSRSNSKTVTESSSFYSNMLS
Excerpt: In order to illustrate the potential of blocking two different receptor populations with a single compound a consensus NK1 receptor antagonist (DArg-DPro-Lys-Pro-Gln-Asn-DPhe-Phe-DTrp-Leu-Nle) was synthesized. […] Once the activity of this reference ligand was established, a series of lysine containing monomers formed by the systematic substitution of a lysine residue sequentially through the reference peptide was synthesized.

[3] = Table B, read-out: pA2 GUINEA PIG ILEUM (converted)

Structure (SMILES)	Kb (BK2 receptor [1]) [nM]	Kb (BK2 receptor [2]; [3]) [nM]	further results
CC(C)C[C@H](NC(=O)[C@@H](Cc1ccccc1)NC(=O)[C@H](CO)NC(=O)[C@H](Cc1ccccc1)NC(=O)CNC(=O)[C@@H]1C[C@@H](O)CN1C(=O)[C@@H]1CCCN1C(=O)[C@H](CCCNC(=N)N)NC(=O)[C@@H](N)CS)C(=O)N[C@@H](CCCNC(=N)N)C(=O)O [CP-0140] (HELM PEPTIDE1{C.R.P.[Hyp].G.F.S.[dF].L.R}$$$$V2.0)	79.4	200	
CCCC[C@H](NC(=O)[C@H](CC(C)C)NC(=O)[C@@H](Cc1c[nH]c2ccccc12)NC(=O)[C@H](Cc1ccccc1)NC(=O)[C@@H](Cc1ccccc1)NC(=O)[C@H](CC(N)=O)NC(=O)[C@H](CCC(N)=O)NC(=O)[C@H](CCCCNC(=O)CCCCCN1C(=O)CC(SC[C@H](NC(=O)[C@H](Cc2ccccc2)NC(=O)CNC(=O)[C@@H]2C[C@@H](O)CN2C(=O)[C@@H]2CCCN2C(=O)[C@H](CCCNC(=N)N)NC(=O)[C@H](N)CCCNC(=N)N)C(=O)N[C@H](Cc2ccccc2)C(=O)N[C@@H](CC(C)C)C(=O)N[C@@H](CCCNC(=N)N)C(=O)O)C1=O)NC(=O)[C@H](CCCCN)NC(=O)[C@H]1CCCN1C(=O)[C@H](N)CCCNC(=N)N)C(N)=O (stereo partly shown) [CP-0393] (HELM PEPTIDE1{[dR].[dP].K.K.Q.N.[dF].F.[dW].L.[Nle].[am]}|PEPTIDE2{[dR].R.P.[Hyp].G.F.C.[dF].L.R}|CHEM1{[O=C1CC([*:2])C(=O)N1CCCCCC(=O)[*:1]]}$PEPTIDE1,CHEM1,4:R3-1:R1|PEPTIDE2,CHEM1,7:R3-1:R2$$$V2.0)	39.8		Kb (NK1 receptor; read-out: NK1 : GPI pA2 (± s.e.m.) (converted)): 3160 nM
CCCC[C@H](NC(=O)[C@H](CC(C)C)NC(=O)[C@@H](Cc1c[nH]c2ccccc12)NC(=O)[C@H](Cc1ccccc1)NC(=O)[C@H](CCCCNC(=O)CCCCCN1C(=O)CC(SC[C@H](NC(=O)[C@H](Cc2ccccc2)NC(=O)CNC(=O)[C@@H]2C[C@@H](O)CN2C(=O)[C@@H]2CCCN2C(=O)[C@H](CCCNC(=N)N)NC(=O)[C@H](N)CCCNC(=N)N)C(=O)N[C@H](Cc2ccccc2)C(=O)N[C@@H](CC(C)C)C(=O)N[C@@H](CCCNC(=N)N)C(=O)O)C1=O)NC(=O)[C@H](CC(N)=O)NC(=O)[C@H](CCC(N)=O)NC(=O)[C@@H]1CCCN1C(=O)[C@H](CCCCN)NC(=O)[C@H]1CCCN1C(=O)[C@H](N)CCCNC(=N)N)C(N)=O (stereo partly shown) [CP-0396] (HELM PEPTIDE1{[dR].[dP].K.P.Q.N.K.F.[dW].L.[Nle].[am]}|PEPTIDE2{[dR].R.P.[Hyp].G.F.C.[dF].L.R}|CHEM1{[O=C1CC([*:2])C(=O)N1CCCCCC(=O)[*:1]]}$PEPTIDE1,CHEM1,7:R3-1:R1|PEPTIDE2,CHEM1,7:R3-1:R2$$$V2.0)	10		NK1 : GPI pA2 (± s.e.m.) (NK1 receptor): Inactive
CC(C)C[C@H](NC(=O)[C@@H](Cc1ccccc1)NC(=O)[C@H](CO)NC(=O)[C@H](Cc1ccccc1)NC(=O)CNC(=O)[C@@H]1C[C@@H](O)CN1C(=O)[C@@H]1CCCN1C(=O)[C@H](CSC1CC(=O)N(CCCCCCN2C(=O)CC(SC[C@H](NC(=O)[C@H](N)CCCNC(=N)N)C(=O)N3CCC[C@H]3C(=O)N3C[C@H](O)C[C@H]3C(=O)NCC(=O)N[C@@H](Cc3ccccc3)C(=O)N[C@@H](CO)C(=O)N[C@H](Cc3ccccc3)C(=O)N[C@@H](CC(C)C)C(=O)N[C@@H](CCCNC(=N)N)C(=O)O)C2=O)C1=O)NC(=O)[C@H](N)CCCNC(=N)N)C(=O)N[C@@H](CCCNC(=N)N)C(=O)O (stereo partly shown) [CP-0153] (HELM PEPTIDE1{[dR].C.P.[Hyp].G.F.S.[dF].L.R}|PEPTIDE2{[dR].C.P.[Hyp].G.F.S.[dF].L.R}|CHEM1{[O=C1CC([*:1])C(=O)N1CCCCCCN1C(=O)CC([*:2])C1=O]}$PEPTIDE1,CHEM1,2:R3-1:R1|PEPTIDE2,CHEM1,2:R3-1:R2$$$V2.0)		25.1	
CC(C)C[C@H](NC(=O)[C@@H](Cc1ccccc1)NC(=O)[C@H](CSSC[C@H](NC(=O)[C@H](Cc1ccccc1)NC(=O)CNC(=O)[C@@H]1C[C@@H](O)CN1C(=O)[C@@H]1CCCN1C(=O)[C@H](CCCNC(=N)N)NC(=O)[C@H](N)CCCNC(=N)N)C(=O)N[C@H](Cc1ccccc1)C(=O)N[C@@H](CC(C)C)C(=O)N[C@@H](CCCNC(=N)N)C(=O)O)NC(=O)[C@H](Cc1ccccc1)NC(=O)CNC(=O)[C@@H]1C[C@@H](O)CN1C(=O)[C@@H]1CCCN1C(=O)[C@H](CCCNC(=N)N)NC(=O)[C@H](N)CCCNC(=N)N)C(=O)N[C@@H](CCCNC(=N)N)C(=O)O [CP-0138] (HELM PEPTIDE1{[dR].R.P.[Hyp].G.F.C.[dF].L.R}|PEPTIDE2{[dR].R.P.[Hyp].G.F.C.[dF].L.R}$PEPTIDE1,PEPTIDE2,7:R3-7:R3$$$V2.0)	10		Kb (BK2 receptor [2]; Table E, read-out: GPI pA2 (converted)): 63.1 nM
CC(C)C[C@H](NC(=O)[C@@H](Cc1ccccc1)NC(=O)[C@H](CO)NC(=O)[C@H](Cc1ccccc1)NC(=O)CNC(=O)[C@@H]1C[C@@H](O)CN1C(=O)[C@@H]1CCCN1C(=O)[C@H](CCCNC(=N)N)NC(=O)[C@@H](N)CSC1CC(=O)N(CCCCCCN2C(=O)CC(SC[C@H](N)C(=O)N[C@@H](CCCNC(=N)N)C(=O)N3CCC[C@H]3C(=O)N3C[C@H](O)C[C@H]3C(=O)NCC(=O)N[C@@H](Cc3ccccc3)C(=O)N[C@@H](CO)C(=O)N[C@H](Cc3ccccc3)C(=O)N[C@@H](CC(C)C)C(=O)N[C@@H](CCCNC(=N)N)C(=O)O)C2=O)C1=O)C(=O)N[C@@H](CCCNC(=N)N)C(=O)O (stereo partly shown) [CP-0152] (HELM PEPTIDE1{C.R.P.[Hyp].G.F.S.[dF].L.R}|PEPTIDE2{C.R.P.[Hyp].G.F.S.[dF].L.R}|CHEM1{[O=C1CC([*:1])C(=O)N1CCCCCCN1C(=O)CC([*:2])C1=O]}$PEPTIDE1,CHEM1,1:R3-1:R1|PEPTIDE2,CHEM1,1:R3-1:R2$$$V2.0)		> 1000	
CC(C)C[C@H](NC(=O)[C@@H](Cc1ccccc1)NC(=O)[C@H](CO)NC(=O)[C@H](Cc1ccccc1)NC(=O)CNC(=O)[C@@H]1C[C@@H](O)CN1C(=O)[C@H](CSC1CC(=O)N(CCCCCCN2C(=O)CC(SC[C@H](NC(=O)[C@H](CCCNC(=N)N)NC(=O)[C@H](N)CCCNC(=N)N)C(=O)N3C[C@H](O)C[C@H]3C(=O)NCC(=O)N[C@@H](Cc3ccccc3)C(=O)N[C@@H](CO)C(=O)N[C@H](Cc3ccccc3)C(=O)N[C@@H](CC(C)C)C(=O)N[C@@H](CCCNC(=N)N)C(=O)O)C2=O)C1=O)NC(=O)[C@H](CCCNC(=N)N)NC(=O)[C@H](N)CCCNC(=N)N)C(=O)N[C@@H](CCCNC(=N)N)C(=O)O (stereo partly shown) [CP-0154] (HELM PEPTIDE1{[dR].R.C.[Hyp].G.F.S.[dF].L.R}|PEPTIDE2{[dR].R.C.[Hyp].G.F.S.[dF].L.R}|CHEM1{[O=C1CC([*:1])C(=O)N1CCCCCCN1C(=O)CC([*:2])C1=O]}$PEPTIDE1,CHEM1,3:R3-1:R1|PEPTIDE2,CHEM1,3:R3-1:R2$$$V2.0)		126	
CC(C)C[C@H](NC(=O)[C@@H](Cc1ccccc1)NC(=O)[C@H](CO)NC(=O)[C@H](Cc1ccccc1)NC(=O)CNC(=O)[C@@H]1C[C@@H](O)CN1C(=O)[C@H](CS)NC(=O)[C@H](CCCNC(=N)N)NC(=O)[C@H](N)CCCNC(=N)N)C(=O)N[C@@H](CCCNC(=N)N)C(=O)O [CP-0142] (HELM PEPTIDE1{[dR].R.C.[Hyp].G.F.S.[dF].L.R}$$$$V2.0)		> 1000	
CC(C)C[C@H](NC(=O)[C@@H](Cc1ccccc1)NC(=O)[C@H](CO)NC(=O)[C@H](CS)NC(=O)CNC(=O)[C@@H]1C[C@@H](O)CN1C(=O)[C@@H]1CCCN1C(=O)[C@H](CCCNC(=N)N)NC(=O)[C@H](N)CCCNC(=N)N)C(=O)N[C@@H](CCCNC(=N)N)C(=O)O [CP-0144] (HELM PEPTIDE1{[dR].R.P.[Hyp].G.C.S.[dF].L.R}$$$$V2.0)		398	
